Where two headings read alike, the source gives them in different places. Square brackets hold non-standard residues; d marks the D form. Peptide text beside a SMILES is read from it. pGlu = O=C1CC[C@@H](C(=O)O)N1
Tests used:
[1] = test system: Bacillus stearothermophilus thermolysin; assay: Inhibitor analysis of B.s. thermolysin; assay type: biochemical; details: for Ki: read-out: Inhibition Constant (Ki), B.s. Thermolysin
Protocol: (§1) Other metalloprotease inhibitors are utilized to further differentiate the p45 metalloprotease from the Bacillus thermolysins. Inhibition constants for 1,10-phenanthroline, phosphoramidon, and CdCl2 are determined to be 130 uM, 1 uM, and 67 uM against the p45 Metalloprotease (Table 3). Inhibition constants for 1,10-phenanthroline, phosphoramidon, and CdCl2 are 85 uM, 26 uM, and 2 uM against the Bacillus stearothermophilus thermolysin. […] It is of interest to note that phophoramidon is an effective inhibitor of many bacterial metallo-endopeptidases but few of mammalian origin. Also, it is interesting that CdCl2 is found to be such an effective inhibitor of metalloproteases. No evidence of CdCl2 inhibition of metalloproteases has been found in the literature.

[2] = test system: Fusarium oxysporum metalloprotease; assay: Inhibition of Fusarium metalloprotease with 1,10-phenanthroline / EDTA and reactivation with Zn2+; assay type: biochemical; details: inhibitor 1 mM
Protocol: (§2) Metalloprotease activity is measured as released trypsin activity from pro-trypsin-like Fusarium oxysporum protease deposited at the Deutsche Sammlung von Mikroorganismen, Gottingen, Germany under the number DSM 2672, after a 30-60 min pre-incubation at 25° C. in 0.1M Tris, 2 mM CaCl2, pH 7 (at lower pH, 100 mM borate, 10 mM DMG, 2 mM CaCl2 is used).
(§3) Metalloproteases contain a catalytic zinc metal center which participates in the hydrolysis of the peptide backbone. The active zinc center differentiates these proteases from calpains whose activities are dependent upon the presence of calcium. Confirmation of a protease as a metallo-protease is loss of proteolytic activity accomplished by removal of the zinc center with 1,10-phenanthroline (1 mM) followed by titration with Zn^2+ (0.1-100 μM) to restore full activity.
(§4) However, when combined the metalloprotease cleaves recombinant pro-trypsin-like Fusarium oxysporum protease disclosed, supra to yield the active tryptic protease. Metalloprotease activity is halted upon the addition of 1 mM 1,10-phenanthroline (Table 1).

[3] = biological target: T1, trypsin-like Fusarium oxysporum protease (Fusarium oxysporum, UniProt P35049); assay: Effect of 1,10-phenanthroline on tryptic activity (L-BAPNA); assay type: biochemical; details: 1,10-phenanthroline 1 mM
T1 construct: the metalloprotease cleaves recombinant pro-trypsin-like Fusarium oxysporum protease disclosed, supra to yield the active tryptic protease; made in house; host or cells: Aspergillus oryzae (IFO 4177), plasmid pSX183
Protocol: as §2, §4

p45 Metalloprotease [4] = biological target: T2, p45 Metalloprotease (Fusarium oxysporum, UniProt M1UZ70); assay: Inhibitor analysis of the p45 metalloprotease; assay type: biochemical; parameters: precursor 632 aa (18 signal, 226 pro); native or A. oryzae-expressed with same N-terminus
Protocol: as §1

bacterial thermolysins = details: 1M NaCl
Protocol: FTC-casein (20 microliters, 0.5% w/w in 50 mM Tris-Cl, pH 7.2), NaCl (0-2M) in trypsin-like F. oxysporum protease sample buffer, and either trypsin-like F. oxysporum protease (10 microliters, 1.8 ug) or p45 metalloprotease (10 microliters, 0.33 ug) are added to trypsin-like F. oxysporum protease sample buffer to a total volume of 50 microliters. Samples are incubated at room temperature for 30 minutes. At the end of the incubation, 150 microliters of 5% (w/v) trichloroacetic acid is added and the samples are allowed to precipitate for 60 minutes at 4° C. Samples are subsequently centrifuged (14,000 rpm, 5 minutes) and 30 microliters of supernatant are added to 3 ml of 0.5M sodium borate, pH 9.
The fluorescence of the samples is measured (Perkin-Elmer fluorimeter) using a 2.5 nm slit width, excitation at 490 nm and emission detected at 525 nm.

[5] = biological target: trypsin-like F. oxysporum protease (Fusarium oxysporum, UniProt P35049); details: 2M NaCl; FIG. 11
p45 Metalloprotease [6] = biological target: T2, p45 Metalloprotease; details: 1M NaCl; FIG. 11
p45 Metalloprotease [7] = biological target: T2, p45 Metalloprotease; assay: Influence of heavy metal additions on p45 metalloprotease activity (FTC-casein); assay type: biochemical; parameters: precursor 632 aa (18 signal, 226 pro); native or A. oryzae-expressed with same N-terminus; details: CoCl2 0-4 mM, p45 0.9 ug
Protocol: Samples are incubated at room temperature for 30 minutes.
It is interesting that substoichiometric levels of Zn are found after metal analysis (ICP) of the p45 metalloprotease. It appears that zinc levels are only 5% of that expected based on the level of p45 metalloprotease in the sample. No other heavy metal (i.e. Cd, Cr, Co, Cu, Mo, Ni, Li, […], Fe, Mn, As, Pb, or Se) is present in the p45 maturase sample.

[8] = biological target: neutral metalloprotease from Bacillus stearothermophilus (Bacillus stearothermophilus); assay: enzyme inhibition, kinetic analysis of B.s. thermolysin activity
p45 Metalloprotease [9] = biological target: T2, p45 Metalloprotease; assay: Effect of the pentapeptide on processing of pro-trypsin-like protease by p45; assay type: biochemical; parameters: precursor 632 aa (18 signal, 226 pro); native or A. oryzae-expressed with same N-terminus; details: 45-minute pre-incubation at room temperature
Protocol: After a 45-minute pre-incubation at room temperature with gentle shaking, the mixtures are diluted 500-fold and assayed for trypsin-like F. oxysporum protease activity.

[10] = biological target: T3, p45 metalloprotease from Fusarium oxysporum (Fusarium oxysporum); assay: enzyme inhibition, kinetic analysis of p45 activity
T3 chain: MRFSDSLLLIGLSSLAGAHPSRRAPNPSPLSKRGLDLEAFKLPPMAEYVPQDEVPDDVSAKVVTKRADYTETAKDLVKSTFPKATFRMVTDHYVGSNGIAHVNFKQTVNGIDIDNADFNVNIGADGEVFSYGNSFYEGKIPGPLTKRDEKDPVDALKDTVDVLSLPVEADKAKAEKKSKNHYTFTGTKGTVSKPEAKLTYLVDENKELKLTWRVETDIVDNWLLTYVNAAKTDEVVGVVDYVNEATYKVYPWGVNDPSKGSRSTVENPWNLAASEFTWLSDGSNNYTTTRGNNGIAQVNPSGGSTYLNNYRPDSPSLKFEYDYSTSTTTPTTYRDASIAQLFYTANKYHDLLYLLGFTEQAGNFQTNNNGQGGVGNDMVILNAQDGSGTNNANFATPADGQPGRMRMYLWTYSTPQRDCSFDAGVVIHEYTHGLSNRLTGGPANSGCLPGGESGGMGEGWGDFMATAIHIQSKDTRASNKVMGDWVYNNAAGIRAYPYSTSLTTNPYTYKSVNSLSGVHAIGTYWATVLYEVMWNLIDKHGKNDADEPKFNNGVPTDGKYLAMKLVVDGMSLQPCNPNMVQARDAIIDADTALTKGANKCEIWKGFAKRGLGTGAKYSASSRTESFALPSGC

FTC-labeled casein [11] = details: scale: fold
[12] = test system: pro-trypsin-like Fusarium oxysporum protease; assay: Proteolytic enzyme assay: tryptic activity released from pro-trypsin-like protease, L-BAPNA, 405 nm; assay type: biochemical
Protocol: as §2, §3, §4

FTC-labeled casein [13] = assay: pH profile, FTC-casein hydrolysis; assay type: biochemical
Protocol: Purified p45 metalloprotease (10 microliters, 0.005 mg/ml) is added to 30 microliters of Universal pH buffer (pH 5-11.5), and 20 microliters of FTC-labeled casein are incubated at 37° C. for 1-hour. 150 microliters of 5% TCA is added to acidify and precipitate casein (1-hour at room temperature). […] Samples are then analyzed on the fluorimeter (slit width=2.5 nm; excitation freq.=490 nm; emission freq.=525 nm; integration time=2 sec).

For `c1cnc2c(c1)ccc1cccnc12` [1,10-phenanthroline], the “type of inhibition, B.s. Thermolysin” value ([1]; kinetic analysis) was “Noncompetitive”, the Ki [1] was 85 µM and the “metalloprotease activity upon addition of the inhibitor” value [2] was “halted”. For the same molecule, the “inhibition of trypsin-like protease” value [3] was “not inhibited”, the Ki (p45 Metalloprotease [4]) was 130 µM and the “type of inhibition, p45 Maturase” value (p45 Metalloprotease [4]; kinetic analysis) was “Noncompetitive”.

`[Cl-].[Na+]` [NaCl] was tested, and the “inhibition of bacterial thermolysins” value (bacterial thermolysins) was 38%, the “inhibition of trypsin-like F. oxysporum protease activity” value [5] was 25% and the “inhibition of p45 metalloprotease activity” value (p45 Metalloprotease [6]) was 85%.

`[Cl-].[Cl-].[Co+2]` [CoCl2] was tested, and the “enhancement of p45 metalloprotease activity” value (p45 Metalloprotease [7]) was “no enhanced activity”.

Molecule “synthetic pentapeptide pyroGlu-Glu-Ile-Pro-Asn-COOH” has a Ki [8] of over 5000 µM.

For `CC[C@H](C)[C@H](NC(=O)[C@H](CCC(=O)O)NC(=O)[C@@H]1CCC(=O)N1)C(=O)N1CCC[C@H]1C(=O)N[C@@H](CC(N)=O)C(=O)O` [<E-E-I-P-N, pyroGlu-Glu-Ile-Pro-Asn-COOH] ([pGlu]EIPN-OH), the “effect of the pentapeptide on p45 metalloprotease activity” value (p45 Metalloprotease [9]) was “not an inhibitor of p45 metalloprotease activity”, the Ki ([1]; no effect) was over 5000 µM and the Ki (p45 Metalloprotease [4]) was over 5000 µM.

B1: synthetic pentapeptide pyroGlu-Glu-Ile-Pro-Asn-COOH (peptide)
peptide: [pGlu]EIPN-OH
SMILES: CC[C@H](C)[C@H](NC(=O)[C@H](CCC(=O)O)NC(=O)[C@@H]1CCC(=O)N1)C(=O)N1CCC[C@H]1C(=O)N[C@@H](CC(N)=O)C(=O)O
Molecule B1 has a Ki [10] of over 5000 µM.

B2: trypsin-like Fusarium oxysporum protease (enzyme)
chain: IVGGTSASAGDFPFIVSISRNGGPWCGGSLLNANTVLTAAHCVSGYAQSGFQIRAGSLSRTSGGITSSLSSVRVHPSYSGNNNDLAILKLSTSIPSGGNIGYARLAASGSDPVAGSSATVAGWGATSEGGSSTPVNLLKVTVPIVSRATCRAQYGTSAITNQMFCAGVSSGGKDSCQGDSGGPIVDSSNTLIGAVSWGNGCARPNYSGVYASVGALRSFIDTYA
For B2, the hydrolysis of FTC-casein at pH 9 (FTC-labeled casein [11]) was 16, the “Tryptic Activity” value ([12]; with 1,10-phenanthroline (1 mM), without Zn2+) was 33.8 Δ Abs/min × 10^-4 and the Tryptic Activity ([12]; with inhibitor (1,10-phenanthroline) addition) was 33.8×10^-4 ΔAbs/min. For the same molecule, the “Tryptic Activity” value ([12]; without 1,10-phenanthroline, without Zn2+) was 34.0 Δ Abs/min × 10^-4, the Tryptic Activity ([12]; without inhibitor addition) was 34.0×10^-4 ΔAbs/min and the “pH at which the protease functions optimally” value (FTC-labeled casein [13]) was about 9.5.

— patent US5807729A, “Metalloprotease having increased activity” (Novo Nordisk A/S, priority 1995, dated 1998)
